Patent publication US20200264182A1, “METHOD FOR DETECTING PROSTATE CANCER” (J-OIL MILLS, INC., priority 2017, published 2020)

Test system: serum fucosylated PSA
Experiment: Sandwich ELISA, anti-PSA antibody and biotin-labeled lectin
Format: binding, human
Conditions: for Δ (=A − B): reaction value of Prostate cancer 4 minus Healthy 1; for lectin reaction value B of Healthy 1: serum of Healthy 1; for lectin reaction value A of Prostate cancer 4: serum of Prostate cancer 4, GS 6 (3 + 3)
Method: The anti-PSA antibody from which sugar chains had been removed was diluted to 5 μg/mL with PBS. 25 μL of this diluted solution was added to each well of an ELISA plate and allowed to stand at 37° C. for 12 hours, and then the additive solution was discarded.
150 μL of PBS containing 0.05% Tween 20 (product name: polyoxyethylene sorbitan monolaurate, from Nacalai Tesque, Inc.) was added to each well, and then the additive solution was discarded. This manipulation was repeated three times in total.
25 μL of 1% BSA/PBS was added to each well and allowed to stand at 37° C. for 1 hour, and then the additive solution was discarded.
150 μL of PBS containing 0.05% Tween 20 was added to each well, and then the additive solution was discarded. This manipulation was repeated three times in total.
To graph a calibration curve, 25 μL of the fucosylated PSA reference standard diluted with 1% BSA/PBS to a concentration of 0 to 200 ng/mL was added to each well and allowed to stand at room temperature for 1 hour, and then the additive solution was discarded. In addition, to detect the fucosylated PSA in the serum of the subject by the lectin, 25 μL of serum of “Healthy 1” and “Prostate cancer 4” 2-fold diluted with PBS was added to each well and allowed to stand at room temperature for 1 hour, and then the additive solution was discarded.
In Reference Example 1, 25 μL of a biotin-labeled PhoSL diluted to 0.1 μg/mL with 0.1% BSA/PBS (pH 7.4) was added to each well and allowed to stand at 4° C. for 30 minutes, and then the additive solution was discarded. In Example 1, 25 μL of a biotin-labeled PhoSL diluted to 0.1 μg/mL with 0.1% BSA/10-fold diluted PBS+glycine-NaOH (pH 9.6) was added to each well and allowed to stand at 4° C. for 30 minutes, and then the additive solution was discarded.
25 μL of a horseradish peroxidase (HRP)-labeled streptavidin solution (from Vector Laboratories, Inc., concentration: 0.4 μg/mL, in 1% BSA/PBS) was added to each well and allowed to stand at room temperature for 30 minutes, and then the additive solution was discarded.
25 μL of chromogenic substrate for HRP (product name: TMB, from Kirkegaard & Perry Laboratories, Inc.) was added to each well and allowed to stand at room temperature for 10 minutes.
25 μL of 1M phosphoric acid was added to terminate the reaction.
Absorbance (Ab) at 450 nm and 630 nm was measured using a plate reader, and a measurement (Ab450-630) was obtained.
A calibration curve was graphed by plotting signals (reaction values, Ab450-630) of the fucosylated PSA reference standard with the biotin-labeled PhoSL. A Signal (Ab450-630) of the biotin-labeled PhoSL corresponding to the fucosylated PSA concentration of 10 ng/mL was defined as 10 U/mL.
The signals of biotin-labeled PhoSL (Ab450-630) for the serum fucosylated PSA in the subject samples A were assigned to the calibration curve to calculate reaction values (unit: U/mL).
The PhoSL reaction values for the subject samples A were measured by the same operation as in Example 1. From the PhoSL reaction values, an average value and a median value were determined. Furthermore, a standard cutoff value (89.7 U/mL) was used to determine a detection rate (positive rate) of the prostate cancer patients, and a false detection rate (false positive rate) of the healthy persons.
Comparative Example 2 in Table 9 indicates results of detecting the serum fucosylated PSA using AAL (AAL reaction values) in the subject samples A. Specifically, in Reference Example 1, AAL reaction values were measured in the same manner as in Reference Example 1 except that the biotin-labeled PhoSL was replaced with a biotin-labeled AAL. A standard cut-off value for the AAL reaction values was 894.8 U/mL. As in Example 2, an average value, a median value, a positive rate and a false positive rate were determined from the AAL reaction values.

PhoSL peptide: synthesized Pholiota squarrosa lectin peptide, SEQ ID No. 6 (Lys substitutions at 1, 20, 39; 40th Gly deleted) (KPVPVTKLVCDGDTYKCTAKLDFGDGRWVAQWDTNVFHK; Modification of SEQ ID(1) in which Ala at position 1, Tyr at position 20 and Thr at position 39 are substituted with Lys, and Gly at position 40 is deleted.)
Δ (=A − B) (pH in lectin reaction 7.4): 100.5 U/mL | Δ (=A − B) (pH in lectin reaction 9.6): 234.4 U/mL | lectin reaction value B of Healthy 1 (pH in lectin reaction 7.4): 1.0 U/mL | lectin reaction value B of Healthy 1 (pH in lectin reaction 9.6): Below detection limit | lectin reaction value A of Prostate cancer 4 (pH in lectin reaction 7.4): 101.5 U/mL | lectin reaction value A of Prostate cancer 4 (pH in lectin reaction 9.6): 234.4 U/mL
